Laboratory results as given in patent US20070093416A1, “Human beta-defensin secretion promoter” (priority 2003, published 2007).

System: β-defensin-2
Assay: β-Defensin Secretion Promotion Confirmatory Test-3 (Concentration Dependency)
Assay type: in vivo, human
Details: 3 healthy adults
Description: To evaluate β-defensin secretion promotion effects and concentration dependency of an organic acid, the following tests were conducted using 3 healthy adults as subjects. Saliva secreted for 3 minutes from rested subjects was collected by a spitting method (hereunder, this is referred to as the control). Thereafter, 1 ml of 0.01 wt % malic acid (amount of malic acid ingested: 0.1 mg) was placed in the oral cavity, held for one minute, and then collected together with the secreted saliva. The concentration of β-defensin-2 in the saliva was measured by ELISA, and the amount of β-defensin-2 secreted over one minute using 0.1 mg of malic acid was calculated based on the formula below. Note that the saliva amount (ml) in the formula below was calculated based on the weight of the collected saliva (g) assuming 1 g of saliva=1 ml of saliva. The same test was conducted, respectively, using 0.05, 0.1, 0.2, 0.5, or 1 wt % malic acid aqueous solution (amounts of ingested: 0.5, 1, 2, 5, and 10 mg). [table]

O=C(O)CC(O)C(=O)O (centres unmarked) [malic acid]
amount of β-defensin-2 secreted in saliva (1 ml of 0.01-1 wt % malic acid aqueous solution (0.1-10 mg) held in oral cavity for one minute, FIG. 3): increases depending on the concentration
human β-defensin-2 secretion induction effect (concentration of 0.01% (amount ingested: 0.1 mg), 1 ml held in oral cavity for one minute): has a human β-defensin-2 secretion induction effect
